In ChEMBL document CHEMBL1201862, “PubChem BioAssay data set” (2004):
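48-hour exposure; five concentrations; linearly interpolated endpoints. GI50: concentration for 50% inhibition of growth.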 Activity calls are given as the source filed them. Cut-off read from the data, not from the text of the source: active = GI50 up to about 1.1 µM and inactive = higher.

Assays:
Test in all cases: NCI-60 cell line screen, 48 h
LOX IMVI = system: LOX IMVI
A549 = system: A549
M19-MEL = system: M19-MEL
EKVX = system: EKVX
UACC-257 = system: UACC-257
SN12C = system: SN12C
SW-620 = system: SW-620
RPMI-8226 = system: RPMI-8226
HT-29 = system: HT-29
DLD-1 = system: DLD-1
NCI-H226 = system: NCI-H226
SNB-19 = system: SNB-19
K562 = system: K562
SNB-78 = system: SNB-78
CAKI-1 = system: CAKI-1
U-251 = system: U-251
SNB-75 = system: SNB-75
SF-295 = system: SF-295
KM-20L2 = system: KM-20L2
XF498 = system: XF498
OVCAR-8 = system: OVCAR-8
UACC-62 = system: UACC-62
M14 = system: M14
786-0 = system: 786-0
ACHN = system: ACHN
HCT-15 = system: HCT-15
SK-MEL-28 = system: SK-MEL-28
CCRF-CEM = system: CCRF-CEM
SK-OV-3 = system: SK-OV-3
LXFL 529 = system: LXFL 529
Malme-3M = system: Malme-3M
SF-268 = system: SF-268
NCI-H23 = system: NCI-H23
NCI-H522 = system: NCI-H522
SF-539 = system: SF-539
A498 = system: A498
OVCAR-5 = system: OVCAR-5
OVCAR-3 = system: OVCAR-3
DMS-273 = system: DMS-273
NCI-H460 = system: NCI-H460
UO-31 = system: UO-31
COLO 205 = system: COLO 205
HOP-62 = system: HOP-62
OVCAR-4 = system: OVCAR-4
DMS-114 = system: DMS-114
TK-10 = system: TK-10
SK-MEL-2 = system: SK-MEL-2
HCT-116 = system: HCT-116
HOP-92 = system: HOP-92
SK-MEL-5 = system: SK-MEL-5
HL-60 = system: HL-60
IGROV-1 = system: IGROV-1
RXF 393 = system: RXF 393
SR = system: SR
KM12 = system: KM12
HOP-18 = system: HOP-18
HCC 2998 = system: HCC 2998
MOLT-4 = system: MOLT-4

Measured: GI50

Cc1ccc(N2C(=O)/C(=C3\Sc4c(nc(C)[nH]c4=O)N3c3ccccc3)SC2=S)cc1
inactive: LOX IMVI 15.5 µM | A549 43 µM | M19-MEL 63.5 µM | EKVX 91.8 µM | UACC-257 > 100 µM | SN12C > 100 µM | SW-620 > 100 µM | RPMI-8226 > 100 µM | HT-29 68.9 µM | DLD-1 91.2 µM | NCI-H226 30.5 µM | SNB-19 37.3 µM | K562 32 µM | SNB-78 39 µM | CAKI-1 > 100 µM | U-251 17.3 µM | SNB-75 16.1 µM | SF-295 18 µM | KM-20L2 > 100 µM | XF498 20.9 µM | OVCAR-8 34.6 µM | UACC-62 > 100 µM | M14 19.7 µM | 786-0 10.4 µM | ACHN 28.8 µM | SK-MEL-28 > 100 µM | CCRF-CEM 44.6 µM | SK-OV-3 15.8 µM | LXFL 529 18.5 µM | Malme-3M 46.8 µM | SF-268 75.2 µM | NCI-H23 19.8 µM | NCI-H522 48.4 µM | SF-539 10 µM | A498 34.4 µM | OVCAR-5 > 100 µM | OVCAR-3 18.4 µM | DMS-273 34.6 µM | NCI-H460 22.2 µM | UO-31 29.2 µM | COLO 205 > 100 µM | HOP-62 10.4 µM | OVCAR-4 29.2 µM | DMS-114 72.6 µM | TK-10 24 µM | SK-MEL-2 20.3 µM | HCT-116 60.3 µM | HOP-92 41.5 µM | SK-MEL-5 > 100 µM | HL-60 > 100 µM | IGROV-1 60.3 µM
16.4 µM: HCT-15

C=CC[C@H]1C[C@@]2(C)OC[C@H](C(C)C)N2C1=O
inactive: LOX IMVI > 100 µM | A549 > 100 µM | M19-MEL > 100 µM | RXF 393 > 100 µM | EKVX > 100 µM | UACC-257 > 100 µM | SN12C > 100 µM | SW-620 > 100 µM | RPMI-8226 > 100 µM | HT-29 > 100 µM | SNB-19 > 100 µM | K562 > 100 µM | SNB-78 > 100 µM | CAKI-1 > 100 µM | U-251 > 100 µM | SNB-75 > 100 µM | SF-295 > 100 µM | KM-20L2 > 100 µM | XF498 > 100 µM | OVCAR-8 > 100 µM | UACC-62 > 100 µM | 786-0 > 100 µM | ACHN > 100 µM | SK-MEL-28 > 100 µM | CCRF-CEM > 100 µM | Malme-3M > 100 µM | SF-268 > 100 µM | SR > 100 µM | NCI-H23 > 100 µM | KM12 > 100 µM | SF-539 > 100 µM | A498 > 100 µM | OVCAR-5 > 100 µM | OVCAR-3 > 100 µM | DMS-273 > 100 µM | NCI-H460 > 100 µM | COLO 205 > 100 µM | HOP-62 > 100 µM | OVCAR-4 > 100 µM | TK-10 > 100 µM | SK-MEL-2 > 100 µM | HCT-116 > 100 µM | HOP-92 > 100 µM | SK-MEL-5 > 100 µM | IGROV-1 > 100 µM | HOP-18 > 100 µM
> 100 µM: HCT-15

CCOC(=O)N1CCc2cc(OC)c(OC)c3c2C1CC3=O (centres undefined)
> 100 µM: HCT-15
inactive: LOX IMVI > 100 µM | A549 > 100 µM | HCC 2998 > 100 µM | M19-MEL > 100 µM | RXF 393 > 100 µM | UACC-257 > 100 µM | SN12C > 100 µM | SW-620 > 100 µM | RPMI-8226 > 100 µM | HT-29 > 100 µM | DLD-1 > 100 µM | SNB-19 > 100 µM | K562 > 100 µM | SNB-78 > 100 µM | CAKI-1 > 100 µM | U-251 > 100 µM | SNB-75 > 100 µM | SF-295 > 100 µM | KM-20L2 > 100 µM | OVCAR-8 > 100 µM | UACC-62 > 100 µM | M14 > 100 µM | 786-0 > 100 µM | ACHN > 100 µM | CCRF-CEM > 100 µM | SK-OV-3 > 100 µM | LXFL 529 > 100 µM | Malme-3M > 100 µM | SF-268 > 100 µM | SR > 100 µM | NCI-H522 > 100 µM | KM12 > 100 µM | SF-539 > 100 µM | A498 > 100 µM | OVCAR-5 > 100 µM | DMS-273 > 100 µM | NCI-H460 > 100 µM | UO-31 > 100 µM | COLO 205 > 100 µM | HOP-62 > 100 µM | OVCAR-4 > 100 µM | DMS-114 > 100 µM | MOLT-4 > 100 µM | TK-10 > 100 µM | SK-MEL-2 > 100 µM | HCT-116 > 100 µM | HOP-92 > 100 µM | SK-MEL-5 > 100 µM | HL-60 > 100 µM | IGROV-1 > 100 µM | HOP-18 > 100 µM

COc1cc(C2c3cc4c(cc3[C@@H](NCCN3CCOCC3)C3COC(=O)[C@H]23)OCO4)cc(OC)c1O (some centres undefined)
2.81 µM: HCT-15
active: SF-539 0.993 µM | DMS-273 0.805 µM | HOP-62 0.782 µM
inactive: LOX IMVI 1.77 µM | HCC 2998 2.44 µM | RXF 393 2.9 µM | EKVX 16.4 µM | UACC-257 4.4 µM | SW-620 2.08 µM | HT-29 5.73 µM | DLD-1 5.45 µM | SNB-19 4.89 µM | K562 3.01 µM | SNB-78 > 17.5 µM | CAKI-1 2.08 µM | U-251 1.26 µM | SF-295 2.49 µM | KM-20L2 5.2 µM | OVCAR-8 3.05 µM | UACC-62 2.09 µM | M14 3.98 µM | 786-0 2.1 µM | SK-MEL-28 3.66 µM | LXFL 529 > 17.5 µM | Malme-3M 3.76 µM | SF-268 2.06 µM | NCI-H522 3.16 µM | KM12 4.01 µM | OVCAR-3 4.13 µM | UO-31 2.94 µM | OVCAR-4 > 17.5 µM | TK-10 5.56 µM | SK-MEL-2 4.89 µM | HCT-116 2.86 µM | HOP-92 1.31 µM | IGROV-1 5.52 µM | HOP-18 4.52 µM
